These are literature values, as cited in patent publication US20220151901A1, “A METHOD OF COLORING KERATINOUS MATERIAL COMPRISING THE USE OF AN ORGANOSILICON COMPOUND, A COLORING COMPOUND, AND A MIXTURE OF SILICONES” (Henkel AG & Co. KGaA, priority 2019, published 2022).

Structures are written as SMILES.

The conditions of this series: 25° C.

As for `CCN(Cc1cccc(S(=O)(=O)[O-])c1)c1ccc(C(=C2C=CC(=[N+](CC)Cc3cccc(S(=O)(=O)[O-])c3)C=C2)c2ccccc2S(=O)(=O)[O-])cc1.[Na+].[Na+]` [Acid Blue 9], the solubility in water entry is on record as “more than 20 % by weight”.

`O=S(=O)([O-])c1ccc(N=Nc2c(O)ccc3ccccc23)cc1.[Na+]` [Acid Orange 7, sodium salt of 4-[(2-hydroxy-1-naphthyl)azo]benzene sulphonate]: the solubility in water entry is “more than 7 g/L”.

Turning to `Nc1cc(S(=O)(=O)[O-])cc2cc(S(=O)(=O)[O-])c(N=Nc3ccccc3)c(O)c12.[Na+].[Na+]` [Acid Red 33, disodium salt of 5-amino-4-hydroxy-3-(phenylazo)-naphthalene-2,7-disulphonate], the solubility in water was 2.5 mg/mL.

`O=C([O-])c1c(Cl)c(Cl)c(Cl)c(Cl)c1-c1c2c(Br)cc(=O)c(Br)c-2oc2c(Br)c(O)cc(Br)c12.O=C([O-])c1c(Cl)c(Cl)c(Cl)c(Cl)c1-c1c2c(Br)cc(=O)c(Br)c-2oc2c(Br)c(O)cc(Br)c12.[Na+].[Na+]` [Acid Red 92, disodium salt of 3,4,5,6-tetrachloro-2-(1,4,5,8-tetrabromo-6-hydroxy-3-oxoxanthen-9-yl)benzoic acid]: the solubility in water result is on record as “greater than 10 g/L”.

Take `O=C([O-])C1=NN(c2ccc(S(=O)(=O)[O-])cc2)C(=O)C1N=Nc1ccc(S(=O)(=O)[O-])cc1.[Na+].[Na+].[Na+]` (centres unmarked) [Acid Yellow 23, trisodium salt of 4,5-dihydro-5-oxo-1-(4-sulfophenyl)-4-((4-sulfophenyl)azo)-1H-pyrazole-3-carboxylic acid]: the “solubility in water (in words)” value is “highly soluble”.
